“And” between values parts separate entries of the source, which are not always exact repeats. Identical values can stand only once.
System: 997726-040-R-J2-PDC tumor spheroids, viability
Test: Anticancer human tumor 997726-040-R-J2-PDC patient-derived squamous cell lung carcinoma cell line growth inhibition [PI3K]
Conditions: spheroids with HUVEC and MSC; for viability, T/C: stronger effect = lower value
Outline: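 Tumor cells grown as multi-cell spheroids with HUVEC endothelial cells and MSC fibroblast-like stroma were treated with targeted agents combined with inavolisib, alpelisib, duvelisib or copanlisib. Doses fell in half-log steps from near clinical Cmax, else from 10 microM. Viability was measured.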

[1] = curve of first compound, second compound 0.0316 µM
[2] = curve of first compound, second compound 0.1 µM
[3] = curve of first compound, second compound 0.316 µM
[4] = curve of first compound, second compound 1 µM
[5] = second compound 0.0316 µM, first compound 0.0316 µM
[6] = second compound 0.0316 µM, first compound 0.1 µM
[7] = second compound 0.0316 µM, first compound 0.316 µM
[8] = second compound 0.0316 µM, first compound 1 µM
[9] = second compound 0.0316 µM, first compound 3.16 µM
[10] = second compound 0.0316 µM, first compound 10 µM
[11] = second compound 0.1 µM, first compound 0.0316 µM
[12] = second compound 0.1 µM, first compound 0.1 µM
[13] = second compound 0.1 µM, first compound 0.316 µM
[14] = second compound 0.1 µM, first compound 1 µM
[15] = second compound 0.1 µM, first compound 3.16 µM
[16] = second compound 0.1 µM, first compound 10 µM
[17] = second compound 0.316 µM, first compound 0.0316 µM
[18] = second compound 0.316 µM, first compound 0.1 µM
[19] = second compound 0.316 µM, first compound 0.316 µM
[20] = second compound 0.316 µM, first compound 1 µM
[21] = second compound 0.316 µM, first compound 3.16 µM
[22] = second compound 0.316 µM, first compound 10 µM
[23] = second compound 1 µM, first compound 0.0316 µM
[24] = second compound 1 µM, first compound 0.1 µM
[25] = second compound 1 µM, first compound 0.316 µM
[26] = second compound 1 µM, first compound 1 µM
[27] = second compound 1 µM, first compound 3.16 µM
[28] = second compound 1 µM, first compound 10 µM
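Also: spheroids exposed to compounds for seven days before readout.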

## CC(Cn1ccc(-c2ccc(C#N)c(Cl)c2)n1)NC(=O)c1cc(C(C)O)[nH]n1 (stereo not given) + Cc1nc(NC(=O)N2CCCC2C(N)=O)sc1-c1ccnc(C(C)(C)C(F)(F)F)c1
[1]
  IC50: > 10 µM
[2]
  IC50: > 10 µM
[3]
  IC50: > 10 µM
[4]
  IC50: < 0.0316 µM
Curve of first compound, second compound 3.16 µM
  IC50: < 0.0316 µM
Curve of first compound, second compound 10 µM
  IC50: < 0.0316 µM
[5]
  viability, T/C: 88.7%
[6]
  viability, T/C: 92.7%
[7]
  viability, T/C: 90.5%
[8]
  viability, T/C: 95.7%
[9]
  viability, T/C: 86.2%
[10]
  viability, T/C: 86%
[11]
  viability, T/C: 76%
[12]
  viability, T/C: 74.3%
[13]
  viability, T/C: 80.2%
[14]
  viability, T/C: 74.3%
[15]
  viability, T/C: 78.9%
[16]
  viability, T/C: 72.1%
[17]
  viability, T/C: 62.5%
[18]
  viability, T/C: 53.5%
[19]
  viability, T/C: 59.5%
[20]
  viability, T/C: 57.5%
[21]
  viability, T/C: 58.9%
[22]
  viability, T/C: 54%
[23]
  viability, T/C: 45%
[24]
  viability, T/C: 44.7%
[25]
  viability, T/C: 47.3%
[26]
  viability, T/C: 39.8%
[27]
  viability, T/C: 43.1%
[28]
  viability, T/C: 41.8%
Second compound 3.16 µM, first compound 0.0316 µM
  viability, T/C: 29.4%
Second compound 3.16 µM, first compound 0.1 µM
  viability, T/C: 27.1%
Second compound 3.16 µM, first compound 0.316 µM
  viability, T/C: 32%
Second compound 3.16 µM, first compound 1 µM
  viability, T/C: 33.4%
Second compound 3.16 µM, first compound 3.16 µM
  viability, T/C: 30.6%
Second compound 3.16 µM, first compound 10 µM
  viability, T/C: 26.7%
Second compound 10 µM, first compound 0.0316 µM
  viability, T/C: 15.4%
Second compound 10 µM, first compound 0.1 µM
  viability, T/C: 14.6%
Second compound 10 µM, first compound 0.316 µM
  viability, T/C: 16.2%
Second compound 10 µM, first compound 1 µM
  viability, T/C: 15.1%
Second compound 10 µM, first compound 3.16 µM
  viability, T/C: 14.4%
Second compound 10 µM, first compound 10 µM
  viability, T/C: 9.85%

## CC1(C)CCC(Nc2ncc(C(F)(F)F)c(-c3c[nH]c4c(P(C)(C)=O)c(C#N)ccc34)n2)CN1 (stereo not given) + CC(Nc1ccc2c(c1)OCCn1cc(N3C(=O)OCC3C(F)F)nc1-2)C(N)=O
Curve of first compound, second compound 0.00316 µM
  IC50: < 0.0316 µM
Curve of first compound, second compound 0.01 µM
  IC50: < 0.0316 µM
[1]
  IC50: < 0.0316 µM
[2]
  IC50: < 0.0316 µM
[3]
  IC50: < 0.0316 µM
[4]
  IC50: < 0.0316 µM
Second compound 0.00316 µM, first compound 0.0316 µM
  viability, T/C: 28.7%
Second compound 0.00316 µM, first compound 0.1 µM
  viability, T/C: 30%
Second compound 0.00316 µM, first compound 0.316 µM
  viability, T/C: 33.1%
Second compound 0.00316 µM, first compound 1 µM
  viability, T/C: 33.6%
Second compound 0.00316 µM, first compound 3.16 µM
  viability, T/C: 32.4%
Second compound 0.00316 µM, first compound 10 µM
  viability, T/C: 5.79%
Second compound 0.01 µM, first compound 0.0316 µM
  viability, T/C: 32.1%
Second compound 0.01 µM, first compound 0.1 µM
  viability, T/C: 30.8%
Second compound 0.01 µM, first compound 0.316 µM
  viability, T/C: 28.8%
Second compound 0.01 µM, first compound 1 µM
  viability, T/C: 31%
Second compound 0.01 µM, first compound 3.16 µM
  viability, T/C: 28.3%
Second compound 0.01 µM, first compound 10 µM
  viability, T/C: 4.9%
[5]
  viability, T/C: 25.6%
[6]
  viability, T/C: 22.9%
[7]
  viability, T/C: 23.5%
[8]
  viability, T/C: 26.1%
[9]
  viability, T/C: 25.2%
[10]
  viability, T/C: 4.37%
[11]
  viability, T/C: 14.3%
[12]
  viability, T/C: 18.4%
[13]
  viability, T/C: 17.3%
[14]
  viability, T/C: 21.5%
[15]
  viability, T/C: 19.6%
[16]
  viability, T/C: 3.37%
[17]
  viability, T/C: 14.6%
[18]
  viability, T/C: 12.9%
[19]
  viability, T/C: 14.1%
[20]
  viability, T/C: 13.4%
[21]
  viability, T/C: 13%
[22]
  viability, T/C: 1.45%
[23]
  viability, T/C: 11.4%
[24]
  viability, T/C: 9.53%
[25]
  viability, T/C: 10.6%
[26]
  viability, T/C: 11%
[27]
  viability, T/C: 12.6%
[28]
  viability, T/C: 1.25%

## CCCS(=O)(=O)Nc1ccc(F)c(C(=O)c2c[nH]c3ncc(-c4ccc(Cl)cc4)cc23)c1F
Compound 0.0316 µM
  viability, T/C: 103% [middle of 4 runs]
Compound 0.1 µM
  viability, T/C: 106% [middle of 4 runs]
Compound 0.316 µM
  viability, T/C: 104% (2×) and 114% and 126%
Compound 1 µM
  viability, T/C: 131% [middle of 4 runs]
Compound 10 µM
  viability, T/C: 27.6% [middle of 4 runs]
Curve of compound
  IC50: 7.12 µM and 7.36 µM and 7.32 µM

Source: PubChem BioAssay AID1963964 (Molecular Pharmacology Branch, DTP, NCI, 2024)
